Source: ChEMBL document CHEMBL6121056, “Aculeapyridones A-Q, Pyranopyridone Alkaloids with Protective Effects against Acetaminophen-Induced Acute Liver Injury Discovered from a Coculture of Aspergillus aculeatinus WHUF0198 and a Penicillium sp” (2025)

Assays:
Format in all cases: functional, Mus musculus
AML12 [1] = assay: Protection against acetaminophen-induced acute liver injury in AML12 cells at 5 uM incubated for 12 hrs by MTT assay relative to control
AML12 [2] = assay: Protection against acetaminophen-induced acute liver injury in AML12 cells at 10 uM incubated for 12 hrs by MTT assay relative to control
AML12 [3] = assay: Cytoprotective activity against acetaminophen-induced acute liver injury in AML12 cells assessed as reduction in ALT level at 5 uM measured after 12 hrs relative to control; set-up: scale not given: the % may be the effect or the level left

SMILES	Activity (AML12 [1]) [%]	Activity (AML12 [2]) [%]	Activity (AML12 [3]) [%]
CC[C@@H](C)/C=C/C=C/C=C(\C)[C@@H]1Oc2c(-c3ccc(O)cc3)c[nH]c(=O)c2C(=O)[C@H]1C	-10	-50	–
CC[C@@H](C)/C=C/C=C/C=C(\C)[C@@H]1Oc2cc[nH]c(=O)c2[C@@H](O)[C@H]1C	94	-6.5	29
CC[C@@H](/C=C/C=C/C=C(\C)[C@@H]1Oc2cc[nH]c(=O)c2[C@@H](OC)[C@H]1C)C(=O)O	164	-43	96
CC(=O)N[C@@H](CS)C(=O)O [ACETYLCYSTEINE]	150	165	45
CC[C@H](/C=C/C=C/C=C(\C)[C@@H]1Oc2cc[nH]c(=O)c2[C@@H](OC)[C@H]1C)COC=O	15	-32	–
CO[C@@H]1c2c(cc[nH]c2=O)O[C@@H](/C(C)=C/C=C/C=C/[C@H](CO)CCO)[C@@H]1C	20	59	99
C\C(=C/C=C/C=C/C(C)CC(=O)O)[C@@H]1Oc2cc[nH]c(=O)c2[C@@H](O)C1C (stereo partly specified)	66	26	74
CC[C@H](/C=C/C=C/C=C(\C)[C@@H]1Oc2cc[nH]c(=O)c2[C@@H](OC)[C@H]1C)CO	125	53	82
CO[C@@H]1c2c(cc[nH]c2=O)O[C@@H](/C(C)=C/C=C/C=C/[C@H](C)CC(=O)O)[C@@H]1C	120	18	86
CC[C@H](/C=C/C=C/C=C(\C)[C@@H]1Oc2cc[nH]c(=O)c2[C@@H](O)[C@H]1C)C(=O)O	7	56	118
CC[C@H](/C=C/C=C/C=C(\C)[C@@H]1Oc2ccn(OC)c(=O)c2[C@@H](O)[C@H]1C)C(=O)O	74	-14	52
COn1ccc2c(c1=O)[C@@H](O)[C@@H](C)[C@H](/C(C)=C/C=C/C=C/[C@H](C)CC(=O)O)O2	132	50	115
CC[C@@H](C)/C=C/C=C/C=C(\C)[C@@H]1Oc2cc[nH]c(=O)c2[C@@H](OC)[C@H]1C	30	192	54
CC[C@H](/C=C/C=C/C=C(\C)[C@@H]1Oc2cc[nH]c(=O)c2[C@@H](O)[C@H]1C)CO	17	100	97
CC[C@H](/C=C/C=C/C=C(\C)[C@@H]1Oc2ccn(OC)c(=O)c2[C@@H](O)[C@H]1C)CO	61	64	71
CC[C@H](/C=C/C=C/C=C(\C)[C@@H]1Oc2ccn(OC)c(=O)c2[C@@H](O)[C@H]1C)COC=O	144	21	79
